Molecular target: T1, Human ALDH3A1 (Homo sapiens, UniProt P30838)
T1 sequence (P30838 1-453): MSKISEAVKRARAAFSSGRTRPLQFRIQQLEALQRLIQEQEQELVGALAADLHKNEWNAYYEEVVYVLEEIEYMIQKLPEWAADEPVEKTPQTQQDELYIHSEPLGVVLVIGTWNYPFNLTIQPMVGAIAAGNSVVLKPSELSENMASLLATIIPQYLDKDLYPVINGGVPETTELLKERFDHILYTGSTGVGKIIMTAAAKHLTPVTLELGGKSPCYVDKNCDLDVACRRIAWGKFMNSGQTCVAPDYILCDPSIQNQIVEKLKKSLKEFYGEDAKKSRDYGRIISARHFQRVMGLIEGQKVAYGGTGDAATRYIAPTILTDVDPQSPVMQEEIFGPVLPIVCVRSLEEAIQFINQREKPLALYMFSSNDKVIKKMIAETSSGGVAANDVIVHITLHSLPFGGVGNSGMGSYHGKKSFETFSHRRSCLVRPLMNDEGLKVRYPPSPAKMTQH
Test: ALDH3A1 biochemical assay (benzaldehyde/NADP+, diaphorase-resazurin readout, 1,536-well)
Conditions: for CC-v2: curve class

SMILES | AC50 | Efficacy (Table S2, in-house analogs) | CC-v2 (Table S2, in-house analogs) | Efficacy (Table S1, primary screen) | CC-v2 (Table S1, primary screen)
O=C(NCc1cccc(F)c1)c1csc(N2CCN(c3ccc(Cl)cc3)CC2)n1 [Compound 1] | 0.71 µM | -61.67 | -1.2 | – | –
COc1cccc(N2CCN(c3nc(C(=O)NCc4cccc(C)c4)cs3)CC2)c1 [Compound 2] | 2.51 µM | -72.54 | -1.2 | – | –
COc1cccc(N2CCN(c3nc(C(=O)NCc4ccco4)cs3)CC2)c1 [Compound 3] | 12.6 µM | -54.71 | -2.2 | – | –
CC(=O)Nc1ccc(CN2CC(Oc3ccc4c(c3)OCO4)C2)cc1 [NCGC00373680-01] | 7.94 µM | – | – | -29.03 | -1.4
COc1ccc(CN2C[C@@H](F)[C@@H](OCc3nc4cnccc4[nH]3)C2)cc1 [NCGC00391075-01] | 15.8 µM | -69.78 | -2.4 | – | –
COC(=O)c1ccc2nc(CO[C@H]3CN(Cc4ccc5ccccc5n4)C[C@H]3F)[nH]c2c1 [NCGC00391159-01] | 0.79 µM | -109.85 | -1.1 | – | –
COc1ccc(-n2nc(C)c([C@@H]3C=C[C@@H](NCc4ccccc4)C3)c2C)cc1 [NCGC00391544-01] | 25.1 µM | -31.39 | -2.4 | – | –
COc1ccc(-n2nc(C)c([C@@H]3C=C[C@@H](NCc4cccc(Cl)c4)C3)c2C)cc1 [NCGC00391691-01] | 22.4 µM | -46.23 | -2.2 | – | –
COC(=O)c1ccc2nc(CO[C@H]3CN(C(=O)C4CCOCC4)C[C@H]3F)[nH]c2c1 [NCGC00392526-01] | 28.2 µM | -67.89 | -3 | – | –
Cc1nn(-c2ccc(C(F)(F)F)cc2)c(C)c1[C@@H]1C=C[C@@H](NCc2ccc(N(C)C)cc2)C1 [NCGC00392637-01] | 12.6 µM | -37.26 | -2.2 | – | –
COC(=O)c1ccc2nc(CO[C@H]3CN(C(C)=O)C[C@H]3F)[nH]c2c1 [NCGC00392964-01] | 0.32 µM | -32.94 | -1.2 | – | –
COC(=O)c1ccc2nc(CO[C@H]3CN(C4CCOCC4)C[C@H]3F)[nH]c2c1 [NCGC00392980-01] | 0.18 µM | -21.56 | -1.4 | – | –
COC(=O)c1ccc2nc(CO[C@H]3CN(Cc4ccc(C(F)(F)F)cc4)C[C@H]3F)[nH]c2c1 [NCGC00392986-01] | 28.2 µM | -62.94 | -2.2 | – | –
Cc1ccc2[nH]c(CO[C@H]3CN(Cc4ccc(F)c(F)c4)C[C@H]3F)nc2c1 [NCGC00392991-01] | 4.47 µM | -26.14 | -2.4 | – | –
Cc1ccc2[nH]c(CO[C@H]3CN(C4CCOCC4)C[C@H]3F)nc2c1 [NCGC00392993-01] | 0.32 µM | -23.33 | -1.4 | – | –
Fc1ccc2[nH]c(CO[C@H]3CN(Cc4ccc5ccccc5n4)C[C@H]3F)nc2c1 [NCGC00393065-01] | 0.45 µM | -92.90 | -1.1 | – | –
COc1ccc(-n2nc(C)c([C@@H]3C=C[C@@H](NCc4ccc(N(C)C)cc4)C3)c2C)cc1 [NCGC00394616-01] | 28.2 µM | -105.83 | -2.1 | – | –
Cc1cc(Cl)ccc1-n1nc(C)c([C@@H]2C=C[C@@H](NC(=O)c3ccc(N(C)C)cc3)C2)c1C [NCGC00394621-01] | 3.98 µM | -97.74 | -1.1 | – | –
COCC(=O)Nc1ncncc1-c1noc([C@@H]2CCCN2Cc2cc(OC)c(OC)c(OC)c2)n1 [NCGC00394846-01] | 15.8 µM | – | – | -70.18 | -2.2
Cc1ccc(-n2nc(C)c([C@@H]3C=C[C@@H](NCc4ccc(N(C)C)cc4)C3)c2C)cc1Cl [NCGC00395823-01] | 14.1 µM | -101.87 | -2.1 | – | –
C[S+](=O)([O-])c1ccc(CN2C[C@H](O)C[C@H]2c2nc(C3CC3)no2)cc1 [NCGC00396353-01] | 35.5 µM | – | – | -44.61 | -2.2
Cc1nn(Cc2ccccc2)c(C)c1[C@@H]1C=C[C@@H](NC(=O)c2ccco2)C1 [NCGC00397524-03] | 3.16 µM | -51.19 | -1.2 | – | –
NC(=O)[C@H](Cc1ccc(O)cc1)NC(=O)[C@@]1(O)C[C@@H](O)[C@H](O)[C@@H](NC(=O)c2ccc(F)c(Cl)c2)C1 [NCGC00398197-01] | 35.5 µM | – | – | -17.95 | -2.4
COc1ccc(NC(=O)N[C@H]2C[C@@H](C(=O)N[C@@H](Cc3cccs3)C(N)=O)N(C(=O)CSC)C2)cc1 [NCGC00398253-01] | 14.1 µM | – | – | -63.09 | -2.2

SMILES | AC50 | Efficacy (Table S2, in-house analogs) | CC-v2 (Table S2, in-house analogs) | Efficacy (Table S1, primary screen) | CC-v2 (Table S1, primary screen)
COc1cccc(NC(=O)O[C@@H]2CO[C@H]3[C@@H]2OC[C@@H]3Nc2nccc(-c3ccccc3)n2)c1 [NCGC00398388-01] | 28.2 µM | – | – | -30.64 | -2.4
Cc1nn(CCC#N)c(C)c1[C@@H]1C=C[C@@H](NC(=O)Nc2ccc(Cl)cc2)C1 [NCGC00399959-01] | 28.2 µM | -62.15 | -2.2 | – | –
COc1ccc(NC(=O)N[C@@H]2C=C[C@@H](c3c(C)nn(CCC#N)c3C)C2)cc1 [NCGC00399960-01] | 14.1 µM | -93.02 | -1.1 | – | –
CNCc1cn(C[C@H]2O[C@@H](CC(=O)NCc3ccc(F)cc3)[C@H](O)[C@@H]2O)nn1 [NCGC00400077-01] | 39.8 µM | – | – | -39.06 | -2.2
Cc1nn(Cc2ccccc2)c(C)c1[C@@H]1C=C[C@@H](NC(=O)Nc2ccccc2)C1 [NCGC00400191-01] | 22.4 µM | -83.17 | -2.2 | – | –
Cc1nn(-c2ccc(C(C)C)cc2)c(C)c1[C@@H]1C=C[C@@H](NCc2ccc(F)cc2)C1 [NCGC00401594-01] | 12.6 µM | -91.30 | -2.2 | – | –
COc1ccc(CNc2cc3c(cn2)CN(Cc2ccccc2)CCN3)cc1OC [NCGC00411020-01] | 14.1 µM | – | – | -49.01 | -2.2
CNC(=O)c1cccc(-c2cnc3[nH]cc(CC(=O)N(C)c4ccccc4)c3c2)c1 [NCGC00412252-01] | 0.25 µM | -26.81 | -1.4 | – | –
CNC(=O)c1cccc(-c2cnc3[nH]cc(CC(=O)NCC(C)C)c3c2)c1 [NCGC00412294-01] | 12.6 µM | -83.58 | -1.1 | – | –
CNC(=O)c1cccc(-c2cnc3[nH]cc(CC(=O)Nc4ccccc4C)c3c2)c1 [NCGC00412345-01] | 5.62 µM | -73.33 | -2.4 | – | –
CNC(=O)c1cccc(-c2cnc(Nc3cncnc3)c3c2CCO3)c1 [NCGC00412778-01] | 44.7 µM | – | – | -38.45 | -2.2
CC1(COCC2CC2)COc2ccc(C(=O)Nc3cccc([S+](C)(=O)[O-])c3)cc2N1 (stereo not drawn) [NCGC00416184-01] | 35.5 µM | – | – | -42.40 | -2.4
COc1cccc(-c2cc(C(=O)NCc3cnn(C)c3)c3c(c2)N(C)CCO3)c1OC [NCGC00417015-01] | 17.8 µM | -40.16 | -2.2 | – | –
CN1CCOc2c(C(=O)NCCC(N)=O)cc(-c3ccc(O)c(F)c3)cc21 [NCGC00417031-01] | 14.1 µM | -80.78 | -2.2 | – | –
COc1cc(F)ccc1-c1cc(C(=O)NCCC(N)=O)c2c(c1)N(C)CCO2 [NCGC00417040-01] | 20 µM | -27.04 | -2.4 | – | –
CN1CCOc2c(C(=O)NCCC(N)=O)cc(-c3ccc(CO)cc3)cc21 [NCGC00417044-01] | 17.8 µM | -40.76 | -2.2 | – | –
CN1CCOc2c(C(=O)NCCC(N)=O)cc(-c3ccccc3O)cc21 [NCGC00417061-01] | 0.63 µM | -48.22 | -1.2 | – | –
Cc1cc(CNC(=O)c2cc(-c3cnn(C)c3)cc3c2OCCN3C)no1 [NCGC00417081-01] | 15.8 µM | -39.10 | -2.2 | – | –
CC(=O)Nc1cccc(-c2cc(C(=O)NCc3cnn(C)c3)c3c(c2)N(C)CCO3)c1 [NCGC00417085-01] | 28.2 µM | -77.64 | -2.2 | – | –
CN1CCOc2c(C(=O)NCc3cccnc3)cc(-c3cnn(C)c3)cc21 [NCGC00417099-01] | 0.79 µM | -54.49 | -1.4 | – | –
Cc1c(-c2cc(C(=O)NCc3cccnc3)c3c(c2)N(C)CCO3)cnn1C [NCGC00417124-01] | 2.82 µM | -61.06 | -2.2 | – | –
Cc1nn(-c2ccc(C(C)C)cc2)c(C)c1[C@@H]1C=C[C@@H](NCc2cccc(C#N)c2)C1 [NCGC00421409-01] | 10 µM | -39.09 | -1.2 | – | –
COCc1nc(N2CCC(Cn3cccn3)CC2)cc([C@H]2C[C@H](N)C2)n1 [NCGC00422389-01] | 15.8 µM | – | – | -81.78 | -3
CCn1nc(C)c(CNC(=O)c2cc(COc3ccc4ncccc4c3)on2)c1C [NCGC00426725-01] | 28.2 µM | – | – | -57.51 | -2.2
